Assay results as given in PMC6364417, “Kinase inhibitor library screening identifies synergistic drug combinations effective in sensitive and resistant melanoma cells” (Journal of Experimental & Clinical Cancer Research : CR, 2019).
pIC50: −log10 of the molar value. Where two headings read alike, the source gives them in different places.

Key:
A375 cells = experiment: Synergy determination with the Chou-Talalay method (CompuSyn), cell viability 72 h; format: cell-based, human; conditions: 72 h cell viability, Chou-Talalay / Synergyfinder
Method: The Chou-Talalay method to determine possible synergistic effects of selected kinase inhibitor combinations was used as described in [19]. […] Cells were treated with either single inhibitors or combinations thereof at indicated amounts in technical triplicates. The amounts were pre-determined from each inhibitor’s IC50 value and inhibitors were assayed in a defined dilution series and at constant ratio when combined. […] Combination Index (CI) values showing either synergy (< 1) or antagonism (> 1) were calculated with the CompuSyn software (ComboSyn, Inc).

501Mel cells (parental) = experiment: Kinase inhibitor library screening, PrestoBlue cell viability, 1 or 10 μM, 72 h
In short: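 Values are % viability versus untreated wells, measured by PrestoBlue after a 72 h drug exposure. Screens covered the parental line plus sublines rendered resistant to Vemurafenib or Dabrafenib, each analysed in at least duplicate.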

[1] = tested on: A375-XP cells (Vemurafenib-resistant); experiment: as above
[2] = tested on: IGR37-XP cells (Vemurafenib-resistant); experiment: as above
[3] = tested on: 501Mel-GP cells (Dabrafenib-resistant); experiment: as above
A375 cells (parental) [4] = experiment: as above
[5] = tested on: A375-GP cells (Dabrafenib-resistant); experiment: as above
[6] = tested on: IGR37-GP cells (Dabrafenib-resistant); experiment: as above
IGR37 cells (parental) = experiment: as above
[7] = tested on: 501Mel-XP cells (Vemurafenib-resistant); experiment: as above
[8] = tested on: A375-XP cells (Vemurafenib-resistant); experiment: Dose-response curves and IC50, PrestoBlue cell viability, 72 h; format: cell-based, human; conditions: n.e. = did not suppress growth below 50% in the tested concentration range; for pIC50: read-out: Half-maximal inhibitory concentration value (IC50), Mean
[9] = tested on: A375-GP cells (Dabrafenib-resistant); experiment: as above; format: cell-based, human; conditions: n.e. = did not suppress growth below 50% in the tested concentration range; for pIC50: read-out: Half-maximal inhibitory concentration value (IC50), Mean
A375 cells (parental) [10] = experiment: as above; format: cell-based, human; conditions: for pIC50: read-out: Half-maximal inhibitory concentration value (IC50), Mean
[11] = tested on: IGR37-GP cells (Dabrafenib-resistant); experiment: as above; conditions: Homo sapiens, 72 h, read-out: Half-maximal inhibitory concentration (IC50)
Method: (§1) All inhibitors used in this study were purchased from Selleck Chemicals (Houston, USA). They were dissolved in DMSO to a stock concentration of 10 mM according to the manufacturer’s instructions and stored at − 80 °C. […] Cell viability was measured with the PrestoBlue Cell Viability Reagent (ThermoFisher Scientific) on a CLARIOstar Monochromator microplate reader (BMG Labtech). Using the GraphPad Prism v5.04 software, the half-maximal inhibitor concentration values (IC50) were determined from the curve using the nonlinear log (inhibitor) vs response-variable slope (four parameters) equation. […] The IC50’s were determined for 3 biological replicates and are listed with their standard deviations.
(§2) Values represent the mean of at least three biological replicates; one representative curve of at least 3 biological replicates is depicted. _XP: cells resistant to Vemurafenib (red), _GP: cells resistant to Dabrafenib (green).

[12] = tested on: IGR37-XP cells (Vemurafenib-resistant); experiment: as above; conditions: Homo sapiens, 72 h, read-out: Half-maximal inhibitory concentration (IC50)
Method: as §1, §2

[13] = Homo sapiens, A-375, n.e. = did not suppress growth below 50% in the tested concentration range
[14] = n.e. = did not suppress growth below 50% in the tested concentration range

## O=C(NC1CCNCC1)c1[nH]ncc1NC(=O)c1c(Cl)cccc1Cl [AT7519, reference compound]
A375 cells
  synergistic effects with the BRAF inhibitors Vemurafenib and/or Dabrafenib (in words): did not act synergistically
501Mel cells (parental); 501Mel Parental, 1μΜ, 72 h
  cell viability (kinase inhibitor library screening): 82.3%
501Mel cells (parental); 501Mel Parental, 10μΜ, 72 h
  cell viability (kinase inhibitor library screening): 1.4%
[1]; A375 XP, 1μΜ, 72 h
  cell viability (kinase inhibitor library screening): 37.2%
[1]; A375 XP, 10μΜ, 72 h
  cell viability (kinase inhibitor library screening): 7.6%
[2]; IGR37 XP, 1μΜ, 72 h
  cell viability (kinase inhibitor library screening): 10.8%
[2]; IGR37 XP, 10μΜ, 72 h
  cell viability (kinase inhibitor library screening): 2.4%
[3]; 501Mel GP, 1μΜ, 72 h
  cell viability (kinase inhibitor library screening): 96.2%
[3]; 501Mel GP, 10μΜ, 72 h
  cell viability (kinase inhibitor library screening): 0.428%
A375 cells (parental) [4]; A375 Parental, 10μΜ, 72 h
  cell viability (kinase inhibitor library screening): 8.2%
A375 cells (parental) [4]; A375 Parental, 1μΜ, 72 h
  cell viability (kinase inhibitor library screening): 30.7%
[5]; A375 GP, 1μΜ, 72 h
  cell viability (kinase inhibitor library screening): 17.7%
[5]; A375 GP, 10μΜ, 72 h
  cell viability (kinase inhibitor library screening): 4.8%
[6]; IGR37 GP, 1μΜ, 72 h
  cell viability (kinase inhibitor library screening): 35.9%
[6]; IGR37 GP, 10μΜ, 72 h
  cell viability (kinase inhibitor library screening): 3.9%
IGR37 cells (parental); IGR37 Parental, 1μΜ, 72 h
  cell viability (kinase inhibitor library screening): 79.7%
IGR37 cells (parental); IGR37 Parental, 10μΜ, 72 h
  cell viability (kinase inhibitor library screening): 2.2%
[7]; 501Mel XP, 1μΜ, 72 h
  cell viability (kinase inhibitor library screening): 73.2%
[7]; 501Mel XP, 10μΜ, 72 h
  cell viability (kinase inhibitor library screening): 0.0524%
[8]; Homo sapiens
  pIC50: 6.20
[9]; Homo sapiens
  pIC50: 6.19
A375 cells (parental) [10]; [13]
  pIC50: 6.26

## O=C(Nc1cc(C(F)(F)F)cc(C(F)(F)F)c1)c1cc(Cl)ccc1O [IMD 0354, reference compound]
A375 cells
  synergistic effects with the BRAF inhibitors Vemurafenib and/or Dabrafenib (in words): did not act synergistically
501Mel cells (parental); Homo sapiens, 72 h, read-out: cell viability, 501Mel Parental, 1μΜ
  viability at 1 µM: 34.2%
501Mel cells (parental); Homo sapiens, 72 h, read-out: cell viability, 501Mel Parental, 10μΜ
  viability at 10 µM: -0.0333%
[1]; Homo sapiens, A-375, 72 h, read-out: cell viability, A375 XP, 1μΜ
  viability at 1 µM: 29.7%
[1]; Homo sapiens, A-375, 72 h, read-out: cell viability, A375 XP, 10μΜ
  viability at 10 µM: 4.8%
[2]; Homo sapiens, IGR-37, 72 h, read-out: cell viability, IGR37 XP, 1μΜ
  viability at 1 µM: 41.2%
[2]; Homo sapiens, IGR-37, 72 h, read-out: cell viability, IGR37 XP, 10μΜ
  viability at 10 µM: 4.1%
[3]; Homo sapiens, 72 h, read-out: cell viability, 501Mel GP, 1μΜ
  viability at 1 µM: 25.5%
[3]; Homo sapiens, 72 h, read-out: cell viability, 501Mel GP, 10μΜ
  viability at 10 µM: -0.276%
A375 cells (parental) [4]; Homo sapiens, A-375, 72 h, read-out: cell viability, A375 Parental, 1μΜ
  viability at 1 µM: 23.1%
A375 cells (parental) [4]; Homo sapiens, A-375, 72 h, read-out: cell viability, A375 Parental, 10μΜ
  viability at 10 µM: 6.5%
[5]; Homo sapiens, A-375, 72 h, read-out: cell viability, A375 GP, 1μΜ
  viability at 1 µM: 25.5%
[5]; Homo sapiens, A-375, 72 h, read-out: cell viability, A375 GP, 10μΜ
  viability at 10 µM: 8.1%
[6]; Homo sapiens, IGR-37, 72 h, read-out: cell viability, IGR37 GP, 1μΜ
  viability at 1 µM: 46.7%
[6]; Homo sapiens, IGR-37, 72 h, read-out: cell viability, IGR37 GP, 10μΜ
  viability at 10 µM: 15.4%
IGR37 cells (parental); Homo sapiens, IGR-37, 72 h, read-out: cell viability, IGR37 Parental, 1μΜ
  viability at 1 µM: 59.5%
IGR37 cells (parental); Homo sapiens, IGR-37, 72 h, read-out: cell viability, IGR37 Parental, 10μΜ
  viability at 10 µM: 2.8%
[7]; Homo sapiens, 72 h, read-out: cell viability, 501Mel XP, 1μΜ
  viability at 1 µM: 26%
[7]; Homo sapiens, 72 h, read-out: cell viability, 501Mel XP, 10μΜ
  viability at 10 µM: -0.369%
[8]; Homo sapiens
  pIC50: 6.00
[9]; Homo sapiens
  pIC50: 6.13
A375 cells (parental) [10]; [13]
  pIC50: 6.19

## O=C(Cc1ccc(-c2ccc(OCCN3CCOCC3)cc2)cn1)NCc1ccccc1 [KX2-391, reference compound]
A375 cells
  synergistic effects with the BRAF inhibitors Vemurafenib and/or Dabrafenib (in words): did not act synergistically
501Mel cells (parental); 501Mel Parental, 1μΜ, in %
  cell viability (kinase inhibitor library screening): 16.9
501Mel cells (parental); 501Mel Parental, 10μΜ, in %
  cell viability (kinase inhibitor library screening): 24.4
[1]; A375 XP, 1μΜ, in %
  cell viability (kinase inhibitor library screening): 21.2
[2]; IGR37 XP, 1μΜ, in %
  cell viability (kinase inhibitor library screening): 45.0
[2]; IGR37 XP, 10μΜ, in %
  cell viability (kinase inhibitor library screening): 36.6
[3]; 501Mel GP, 1μΜ, in %
  cell viability (kinase inhibitor library screening): 15.9
[3]; 501Mel GP, 10μΜ, in %
  cell viability (kinase inhibitor library screening): 19.8
A375 cells (parental) [4]; A375 Parental, 1μΜ, in %
  cell viability (kinase inhibitor library screening): 20.3
A375 cells (parental) [4]; A375 Parental, 10μΜ, in %
  cell viability (kinase inhibitor library screening): 16.5
[5]; A375 GP, 1μΜ, in %
  cell viability (kinase inhibitor library screening): 22.8
[5]; A375 GP, 10μΜ, in %
  cell viability (kinase inhibitor library screening): 19.7
[6]; IGR37 GP, 1μΜ, in %
  cell viability (kinase inhibitor library screening): 70.8
[6]; IGR37 GP, 10μΜ, in %
  cell viability (kinase inhibitor library screening): 68.8
IGR37 cells (parental); IGR37 Parental, 1μΜ, in %
  cell viability (kinase inhibitor library screening): 11.7
IGR37 cells (parental); IGR37 Parental, 10μΜ, in %
  cell viability (kinase inhibitor library screening): 19.5
[7]; 501Mel XP, 1μΜ, in %
  cell viability (kinase inhibitor library screening): 9.9
[7]; 501Mel XP, 10μΜ, in %
  cell viability (kinase inhibitor library screening): 14.1
[8]
  pIC50: 7.34
[9]
  pIC50: 7.43
A375 cells (parental) [10]; [14]
  pIC50: 7.38

## Cc1ccc([N+](=O)[O-])cc1S(=O)(=O)N(C)/N=C/c1cnc2ccc(Br)cn12 [PIK-75, reference compound]
A375 cells
  synergistic effects with the BRAF inhibitors Vemurafenib and/or Dabrafenib (in words): synergistic effects only with Dabrafenib
501Mel cells (parental); 501Mel Parental, 1μΜ, 72 h, in %
  Cell viability in kinase inhibitor library screening, 501Mel Parental, 1μΜ: 0.758
501Mel cells (parental); 501Mel Parental, 10μΜ, 72 h, in %
  Cell viability in kinase inhibitor library screening, 501Mel Parental, 10μΜ: 0.0735
[1]; A375 XP, 1μΜ, 72 h
  Cell viability in kinase inhibitor library screening, A375 XP, 1μΜ: 5.1
[1]; A375 XP, 10μΜ, 72 h
  Cell viability in kinase inhibitor library screening, A375 XP, 10μΜ: 2.3
[2]; IGR37 XP, 10μΜ, 72 h
  Cell viability in kinase inhibitor library screening, IGR37 XP, 10μΜ: 0.7%
[2]; IGR37 XP, 1μΜ, 72 h, in %
  Cell viability in kinase inhibitor library screening, IGR37 XP, 1μΜ: 1.2
[3]; 501Mel GP, 1μΜ, 72 h, in %
  Cell viability in kinase inhibitor library screening, 501Mel GP, 1μΜ: 0.164
[3]; 501Mel GP, 10μΜ, 72 h, in %
  Cell viability in kinase inhibitor library screening, 501Mel GP, 10μΜ: 0.3
A375 cells (parental) [4]; A375 Parental, 10μΜ, 72 h
  Cell viability in kinase inhibitor library screening, A375 Parental, 10μΜ: 1.8
A375 cells (parental) [4]; A375 Parental, 1μΜ, 72 h
  Cell viability in kinase inhibitor library screening, A375 Parental, 1μΜ: 4.1
[5]; A375 GP, 1μΜ, 72 h
  Cell viability in kinase inhibitor library screening, A375 GP, 1μΜ: 4.0
[5]; A375 GP, 10μΜ, 72 h
  Cell viability in kinase inhibitor library screening, A375 GP, 10μΜ: 1.2
[6]; IGR37 GP, 10μΜ, 72 h
  Cell viability in kinase inhibitor library screening, IGR37 GP, 10μΜ: 1.1%
[6]; IGR37 GP, 1μΜ, 72 h, in %
  Cell viability in kinase inhibitor library screening, IGR37 GP, 1μΜ: 1.7
IGR37 cells (parental); IGR37 Parental, 1μΜ, 72 h, in %
  Cell viability in kinase inhibitor library screening, IGR37 Parental, 1μΜ: 1.2
IGR37 cells (parental); IGR37 Parental, 10μΜ, 72 h, in %
  Cell viability in kinase inhibitor library screening, IGR37 Parental, 10μΜ: 0.6
[7]; 501Mel XP, 1μΜ, 72 h, in %
  Cell viability in kinase inhibitor library screening, 501Mel XP, 1μΜ: -0.0746
[7]; 501Mel XP, 10μΜ, 72 h, in %
  Cell viability in kinase inhibitor library screening, 501Mel XP, 10μΜ: -0.125
[8]
  pIC50: 7.28
[9]
  pIC50: 7.35
A375 cells (parental) [10]; [14]
  pIC50: 7.26

## CO[C@H]1C[C@@H]2CC[C@@H](C)[C@@](O)(O2)C(=O)C(=O)N2CCCC[C@H]2C(=O)O[C@H]([C@H](C)C[C@@H]2CC[C@@H](OC(=O)C(C)(CO)CO)[C@H](OC)C2)CC(=O)[C@H](C)/C=C(\C)[C@@H](O)[C@@H](OC)C(=O)[C@H](C)C[C@H](C)/C=C/C=C/C=C/1C [Temsirolimus]
[8]
  Half-maximal inhibitory concentration value (IC50), Mean: n.e.
[11]
  pIC50: 5.02
[9]
  Half-maximal inhibitory concentration value (IC50), Mean: n.e.
[12]
  pIC50: 5.16
A375 cells (parental) [10]; [14]
  Half-maximal inhibitory concentration value (IC50), Mean: n.e.
